Assay results as given in PubChem BioAssay (NCI).
Where “and” joins values, the source holds several entries; their conditions need not be identical. Equal values may be shown once.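 Method: 48-hour compound exposure of cells in 96-well plates, five concentrations, linear interpolation of endpoints. GI50 marks 50% less growth. TGI marks complete inhibition of growth.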

Legend:
Test in all cases: NCI anticancer screen, dose series, 48 h
CCRF-CEM leukemia = system: CCRF-CEM leukemia
NCI-H23 lung = system: NCI-H23 lung
OVCAR-5 ovarian = system: OVCAR-5 ovarian
OVCAR-8 ovarian = system: OVCAR-8 ovarian
RXF 393 renal = system: RXF 393 renal
SF-268 CNS = system: SF-268 CNS
SF-295 CNS = system: SF-295 CNS
SN12C renal = system: SN12C renal
SR leukemia = system: SR leukemia
U251 CNS = system: U251 CNS

SMILES | GI50 (CCRF-CEM leukemia) | TGI (CCRF-CEM leukemia) | GI50 (NCI-H23 lung) | TGI (NCI-H23 lung) | GI50 (OVCAR-5 ovarian) | TGI (OVCAR-5 ovarian) | GI50 (OVCAR-8 ovarian) | TGI (OVCAR-8 ovarian) | GI50 (RXF 393 renal) | TGI (RXF 393 renal) | GI50 (SF-268 CNS) [µM] | TGI (SF-268 CNS) | GI50 (SF-295 CNS) | TGI (SF-295 CNS) | GI50 (SN12C renal) | TGI (SN12C renal) [µM] | GI50 (SR leukemia) | TGI (SR leukemia) | GI50 (U251 CNS) | TGI (U251 CNS)
O=C(/C=C/c1ccco1)Nc1ncc(Cc2cccc(C(F)(F)F)c2)s1 | 0.0682 µM | > 47.8 µM | 0.208 µM | > 39.7 µM | 0.353 µM | 11.8 µM | 0.138 µM | > 37.7 µM | 0.0576 µM | 0.853 µM | 0.167 | > 44.2 µM | 0.0678 µM | 1.42 µM | 0.197 µM | > 50.5 | 0.0334 µM | 3.67 µM | 0.0532 µM | 2.11 µM
Nc1c(C(=O)c2ccc(C#CCN3CCOCC3)cc2)cnn1-c1ccc(F)cc1 | > 25 µM | > 25 µM | > 25 µM | > 25 µM | > 25 µM | > 25 µM | > 25 µM | > 25 µM | > 25 µM | > 25 µM | > 25 | > 25 µM | > 25 µM | > 25 µM | > 25 µM | > 25 | > 25 µM | > 25 µM | > 25 µM | > 25 µM
NC(CP(=O)(O)O)C(=O)O (stereo not drawn) | – | > 100 µM | – | > 100 µM | – | > 100 µM | – | > 100 µM | – | > 100 µM | – | > 100 µM | – | > 100 µM | – | > 100 | – | > 100 µM | – | > 100 µM
CC(=O)NC(CS)C(=O)O (stereo not drawn) | – | > 100 µM | > 100 µM | > 100 µM and 62700 µM | > 100 µM | > 100 µM and 66200 µM | > 100 µM | > 100 µM and 88800 µM | > 100 µM | > 100 µM and 69300 µM | > 100 | > 100 µM and 63800 µM | > 100 µM | > 100 µM and 57700 µM | > 100 µM | > 100 | > 100 µM | > 100 µM | > 100 µM | > 100 µM
CN(C)c1ccc(/C=C(\C#N)c2ccccc2)cc1 | 0.332 µM and 0.553 µM and 0.595 µM | 13.4 µM and > 100 µM | 0.957 µM and 1.33 µM and 0.76 µM | > 100 µM | 4.51 µM and 17.2 µM and 10.3 µM | > 100 µM | 0.61 µM and 2.52 µM and 2.65 µM | > 100 µM | 0.394 µM and 0.662 µM and 0.817 µM | 3.09 µM and 5.77 µM | – | > 100 µM | 0.225 µM and 0.421 µM | 0.99 µM and 5.97 µM | 0.553 µM and 0.788 µM and 0.764 µM | > 100 | 0.0866 µM and 0.308 µM and 0.255 µM | 19 µM and 37.6 µM | 0.378 µM and 0.499 µM and 0.538 µM | 55.4 µM and > 100 µM and 91.5 µM
Cn1cnc([N+](=O)[O-])c1Sc1nc2ccccc2o1 | – | 12.8 µM | – | 17.1 µM | – | 19.4 µM | – | 10 µM | – | 22.1 µM | – | 14.4 µM | – | 74.9 µM | – | 18.5 | – | 8.14 µM | – | 26.2 µM
Cc1cc(O[C@@H]2O[C@@H](C)[C@H](O)[C@@H](O)[C@H]2O)c2c3c(c(O[C@@H]4O[C@@H](C)[C@H](O)[C@@H](O)[C@H]4O)cc2c1)C(=O)c1c(O)cccc1C3=O | > 30 µM | > 30 µM | > 30 µM | > 30 µM | > 30 µM | > 30 µM | > 30 µM | > 30 µM | > 30 µM | > 30 µM | > 30 | > 30 µM | > 30 µM | > 30 µM | > 30 µM | > 30 | > 30 µM | > 30 µM | > 30 µM | > 30 µM
C=C1C(=O)O[C@@H]2C[C@@H]1CC[C@]1(C)O[C@H]1CC/C(C)=C/CC[C@@]2(C)O | > 100 µM | > 100 µM | 20.9 µM | 58.4 µM | 28.6 µM | 96 µM | 22.3 µM | 57.8 µM | 25.1 µM | 55.4 µM | 19.9 | 50.5 µM | 29.7 µM | 92.5 µM | 18.6 µM | 41.1 | 4.07 µM | 15.7 µM | 15.5 µM | 28.9 µM
CCCCOC(=O)/C=C\C(=O)NC(N)=O | 15.9 µM | 35.8 µM | 25.1 µM | 72.5 µM | 25.6 µM | 81.7 µM | 29.7 µM | > 100 µM | 12.7 µM | 27.1 µM | 22.1 | 61 µM | 47.2 µM | > 100 µM | 41.5 µM | > 100 | 35.7 µM | > 100 µM | 26.2 µM | 89.3 µM
CN1C(c2ccccc2)CC(C)(O)CC1c1ccccc1 (stereo not drawn) | – | > 100 µM | – | > 100 µM | – | > 100 µM | – | > 100 µM | – | > 100 µM | – | > 100 µM | – | > 100 µM | – | > 100 | – | > 100 µM | – | > 100 µM
O=C1CC(C(=O)O)Cc2c(Br)ccc(O)c21 (stereo not drawn) | – | > 100 µM | – | > 100 µM | – | > 100 µM | – | > 100 µM | – | > 100 µM | – | > 100 µM | – | > 100 µM | – | > 100 | – | > 100 µM | – | > 100 µM
O=C(Nc1ccc(Oc2ccc(NC(=O)Nc3ccccc3Cl)cc2)cc1)Nc1ccccc1Cl | 4.72 µM | 28.8 µM | 3.61 µM | 18.5 µM | 27.6 µM | > 100 µM | 6.83 µM | 23.6 µM | 2.99 µM | 11.4 µM | 8.11 | 55.1 µM | 6.81 µM | 33.9 µM | 7.55 µM | > 100 | 0.453 µM | 13.3 µM | 1.71 µM | 20.5 µM
Cc1ccc(/C=C(/C#N)n2nnc3ncccc32)cc1 | 3.08 µM | > 100 µM | 3.09 µM | 17.9 µM | 2.49 µM | 10.1 µM | 3.16 µM | > 100 µM | 1.54 µM | 6.54 µM | 3.08 | 15.1 µM | 3.77 µM | 16.2 µM | 2.6 µM | 9.66 | 0.765 µM | 26.8 µM | 3.41 µM | 14.1 µM
CC(C)(C)[Si](C)(C)OC1[C@@H](O[Si](C)(C)C(C)(C)C)[C@@H](CNC(=O)NC(=O)NC(=O)CCl)O[C@H]1n1cnc2c(NC(=O)Nc3ccccc3)ncnc21 (stereo partly drawn) | 0.127 µM | 0.334 µM | 1.57 µM | 6.59 µM | 6.41 µM | 14.1 µM | 0.955 µM | 3.77 µM | 2.13 µM | 6.88 µM | 4.51 | 14 µM | 4.91 µM | 15 µM | 3.69 µM | 10.6 | 0.226 µM | 0.81 µM | 1.56 µM | 4.22 µM
